Reference: ChEMBL document CHEMBL1150809, “New acyclic sesquiterpenes and norsesquiterpenes from the Caribbean Gorgonian Plexaurella grisea” (J Nat Prod, 2001)
Converted amounts (≈) assume the structure as drawn.

Columns and labels:
Assay type in all cases: functional, cell-based
[1] = tested on: A549; experiment: Cytotoxicity against human A549 cells
[2] = tested on: P388; experiment: Cytotoxicity against mouse P388 cells
[3] = tested on: SK-MEL-28; experiment: Cytotoxicity against human SK-MEL-28 cells
[4] = tested on: HT-29; experiment: Cytotoxicity against human HT-29 cells

Which IC50 [1] does the source give for `CC(C)=C/C=C\C(C)/C=C/C=C(\C)C=O` (stereo not given) here?
Its IC50 is over 10 µg/mL.

And the IC50 [2]?
The IC50 was over 10 µg/mL.

What about the IC50 [3] of the same molecule?
The IC50 was over 10 µg/mL.

What about the IC50 [4] of the same molecule?
Its IC50 is over 10 µg/mL.

How did the IC50 [1] turn out when `C=C/C(C)=C/CC(OC(C)=O)C(=C)CCC=C(C)C` (stereo not given) was run?
Its IC50 is 5 µg/mL (≈ 19.1 µM).

And the IC50 [2]?
Its IC50 is 2.5 µg/mL (≈ 9.53 µM).

What about the IC50 [3] of the same molecule?
The IC50 was 5 µg/mL (≈ 19.1 µM).

And the IC50 [4]?
Its IC50 is 5 µg/mL (≈ 19.1 µM).

How did the IC50 [1] turn out when `CC(C)=CCCC(C)/C=C/C=C(\C)C=O` (stereo not given) was run?
Its IC50 is 2.5 µg/mL (≈ 12.1 µM).

What about the IC50 [2] of the same molecule?
Its IC50 is 0.5 µg/mL (≈ 2.42 µM).

And the IC50 [3]?
Its IC50 is 2.5 µg/mL (≈ 12.1 µM).

And the IC50 [4]?
Its IC50 is 2.5 µg/mL (≈ 12.1 µM).

Which results are given for `C=C/C(C)=C\C=C\C(C)CC(=O)CC(C)C` (stereo not given)?
IC50 [1]: 2.5 µg/mL (≈ 11.3 µM); IC50 [2]: 2.5 µg/mL (≈ 11.3 µM); IC50 [3]: 2.5 µg/mL (≈ 11.3 µM); IC50 [4]: 2.5 µg/mL (≈ 11.3 µM)

With `C=C/C(C)=C/C=C/C(C)CC(=O)CC(C)C` (stereo not given) as the molecule, how does the IC50 [1] read?
The IC50 was 5 µg/mL (≈ 22.7 µM).

And the IC50 [2]?
Its IC50 is 2.5 µg/mL (≈ 11.3 µM).

And the IC50 [3]?
The IC50 was 5 µg/mL (≈ 22.7 µM).

And the IC50 [4]?
Its IC50 is 5 µg/mL (≈ 22.7 µM).
